Values of other authors, collected in article PMC10147685, “Safety, tolerability, and pharmacokinetics of Aurora kinase B inhibitor AZD2811: a phase 1 dose-finding study in patients with advanced solid tumours” (British Journal of Cancer, 2023).

Experiments:
[1] = tested on: patients with advanced solid tumours; set-up: method as in PMID 27349901; conditions: cited from earlier work
advanced solid tumours = tested on: advanced solid tumours; set-up: method as in PMID 22661287; conditions: cited from earlier work

SMILES | Objective responses [1] | Patients with SD ([1]; depending on the treatment schedule) | Objective responses (advanced solid tumours) | Patients with SD (advanced solid tumours)
CC(C)NC(=O)[C@H]1CCC[C@H]1Nc1nc(Nc2ccc(C(=O)N(C)C3CCN(C)CC3)cc2)ncc1C(F)(F)F [BI 811283] | no objective responses | 30–33% |  | 
CCN(CCCOc1ccc2c(Nc3cc(CC(=O)Nc4cccc(F)c4)n[nH]3)ncnc2c1)CCOP(=O)(O)O [barasertib] |  |  | no objective responses | 23%
